From publication PMC10694654 (The Journal of Biological Chemistry, 2023)

B1: tagless AphAEc (periplasmic acid phosphatase AphA of Escherichia coli, His6-SUMO tag cleaved off by Ulp1) (enzyme)
chain: SPSPLNPGTNVARLAEQAPIHWVSVAQIENSLAGRPPMAVGFDIDDTVLFSSPGFWRGKKTFSPESEDYLKNPVFWEKMNNGWDEFSIPKEVARQLIDMHVRRGDAIFFVTGRSPTKTETVSKTLADNFHIPATNMNPVIFAGDKPGQNTKSQWLQDKNIRIFYGDSDNDITAARDVGARGIRILRASNSTYKPLPQAGAFGEEVIVNSEY
notes: AphA, nonspecific periplasmic acid phosphatase of Escherichia coli K-12; protein of around 25 kDa on SDS-PAGE; pET24d-his-sumo-aphAEc; linker between SUMO and aphA removed by mutagenesis; probably the mature protein as in m1 and m2; also called cleaved His6-SUMO-AphAEc; source: E. coli, purified; His6-SUMO tag cleaved off with His6-Ulp1, size-exclusion chromatography; not shown: His6-SUMO, …
B2: AphAEc-His6 (periplasmic acid phosphatase AphA of Escherichia coli, signal peptide removed, C-terminal His6 tag) (enzyme, UniProt P0AE22 26-237, looked up)
chain: SSPSPLNPGTNVARLAEQAPIHWVSVAQIENSLAGRPPMAVGFDIDDTVLFSSPGFWRGKKTFSPESEDYLKNPVFWEKMNNGWDEFSIPKEVARQLIDMHVRRGDAIFFVTGRSPTKTETVSKTLADNFHIPATNMNPVIFAGDKPGQNTKSQWLQDKNIRIFYGDSDNDITAARDVGARGIRILRASNSTYKPLPQAGAFGEEVIVNSEY
notes: AphA, nonspecific periplasmic acid phosphatase of Escherichia coli K-12; signal peptide removed from the construct; pET28a-aphAEc-his; also called AphA-His6; Ct His6-tagged AphAEc; source: E. coli, purified (Ni-NTA, size-exclusion chromatography on Superdex 200 Increase); not shown: His6, C-terminal, kept
B3: His6-AphAEc (periplasmic acid phosphatase AphA of Escherichia coli, signal peptide removed, N-terminal His6 tag) (enzyme, UniProt P0AE22 26-237, looked up)
chain: B2 chain
notes: AphA, nonspecific periplasmic acid phosphatase of Escherichia coli K-12; signal peptide removed from the construct; pET28a-his-aphAEc; also called Nt His6-tagged AphAEc; source: E. coli, purified (Ni-NTA, size-exclusion chromatography on Superdex 200 Increase); not shown: His6, N-terminal, kept

Experiments:
[1] = molecular target: T1, His6-AphAEc (Escherichia coli, UniProt P0AE22); experiment: DRaCALA competition against […]-cAMP; assay type: binding; conditions: 5 mM AMP (figure legend: 4 mM); 2 nM 32P-cAMP; 40 mM Tris pH 7.5, 100 mM NaCl, 10 mM MgCl2
T1 construct: gene aphA; signal peptide removed, N-terminal His6 kept, pET28a, expressed in E. coli; tetramer by SEC

[2] = molecular target: T2, AphAEc-His6 (Escherichia coli, UniProt P0AE22); experiment: DRaCALA competition against […]-cAMP; assay type: binding; conditions: 5 mM AMP (figure legend: 4 mM); 2 nM 32P-cAMP; 40 mM Tris pH 7.5, 100 mM NaCl, 10 mM MgCl2
T2 construct: gene aphA; signal peptide removed, C-terminal His6 kept, pET28a, expressed in E. coli; non-natural dimer by SEC

[3] = molecular target: T3, His6-HelHi (Haemophilus influenzae, UniProt P26093); experiment: pNPP phosphatase assay, A405; assay type: biochemical; conditions: 1 mM pNPP, 15 nM enzyme, pH 8 and 5.6
T3 construct: gene hel; N-terminal His6 kept, pET28a-his-helHi, expressed in E. coli

[4] = molecular target: the molecule itself; experiment: SEC; Superdex 200 Increase 10/300 GL on an AKTA system; size estimated against standard proteins

T3 sequence (P26093 21-274): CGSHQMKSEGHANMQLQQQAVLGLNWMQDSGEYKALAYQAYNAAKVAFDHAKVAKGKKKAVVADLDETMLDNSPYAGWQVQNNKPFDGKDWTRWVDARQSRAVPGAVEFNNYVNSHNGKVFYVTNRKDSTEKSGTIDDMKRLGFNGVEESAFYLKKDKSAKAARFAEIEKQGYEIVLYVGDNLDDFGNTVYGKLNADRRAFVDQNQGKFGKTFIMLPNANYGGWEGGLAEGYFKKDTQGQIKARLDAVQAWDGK

Molecule	stoichiometry N [4]	other results
Nc1ncnc2c1ncn2[C@@H]1O[C@H](COP(=O)(O)O)[C@@H](O)[C@H]1O [AMP]		DRaCALA competition against 32P-cAMP [1]: the binding fractions dropped to nearly zero for AMP; DRaCALA competition against 32P-cAMP [2]: the binding fractions dropped to nearly zero for AMP
O=[N+]([O-])c1ccc(OP(=O)(O)O)cc1 [p-Nitrophenyl Phosphate]		pNPP phosphatase assay, A405 [3]: acid phosphatase assay of the His6-HelHi protein
B1	4	
B2	2	
B3	4	
